# According to paper PMC10919040, “Exploration of newly synthesized azo-thiohydantoins as the potential alkaline phosphatase inhibitors via advanced biochemical characterization and molecular modeling approaches” (BMC Chemistry, 2024):
# Assays:
# [1] = target: intestinal alkaline phosphatase (IAP) (Bos taurus, UniProt P19111); test: Alkaline phosphatase inhibition assay (spectrophotometric, p-NPP substrate); type: biochemical, calf; conditions: p-NPP 0.5 mM, pH 9.5, 37 °C, Mean ± SEM
# Description: The measurement of intestinal alkaline phosphatase (IAP) activity was conducted using a spectrophotometric method, as described earlier. […] Additionally, 10 µL of the compound was added to the mixture. The mixture was subjected to pre-incubation with 5 µL of IAP (0.025 U/mL) for a duration of 10 min. The reaction was started by introducing 10 µL of the substrate, which was 0.5 mM p-NPP (para nitrophenyl phosphate disodium salt). Following the addition, the assay underwent an incubation period of 30 min at a temperature of 37 °C. The change in absorbance resulting from the release of p-nitrophenolate was monitored at a wavelength of 405 nm using a Thermo Scientific™ Multiskan GO™ microplate reader. The experiment was repeated three times, with each repetition being done in triplicate. […] The calculation of inhibition activity and IC50 values were carried out as discussed earlier.
# Chain of intestinal alkaline phosphatase (IAP) (P19111 20-533): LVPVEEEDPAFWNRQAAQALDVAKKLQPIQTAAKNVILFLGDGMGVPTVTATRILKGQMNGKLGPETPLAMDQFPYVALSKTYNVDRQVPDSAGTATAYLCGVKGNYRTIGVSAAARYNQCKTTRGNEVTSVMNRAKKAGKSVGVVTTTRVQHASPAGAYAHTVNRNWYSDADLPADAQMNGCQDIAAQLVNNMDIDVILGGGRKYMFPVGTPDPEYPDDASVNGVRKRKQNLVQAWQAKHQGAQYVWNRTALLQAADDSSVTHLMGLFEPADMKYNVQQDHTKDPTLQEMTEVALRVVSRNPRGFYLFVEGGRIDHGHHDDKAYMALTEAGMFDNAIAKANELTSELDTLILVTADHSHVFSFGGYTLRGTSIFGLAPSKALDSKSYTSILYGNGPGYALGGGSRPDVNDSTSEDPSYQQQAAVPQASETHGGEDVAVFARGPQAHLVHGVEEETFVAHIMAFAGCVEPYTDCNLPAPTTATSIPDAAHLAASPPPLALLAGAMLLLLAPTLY
Structure (SMILES),IC50 [1] [µM],melting point [°C]
"O=C1CNC(=S)N1/N=C/c1cc(/N=N/c2ccccc2)ccc1O [Compound 7a, 3-((E)-(2-hydroxy-5-((E)-phenyldiazenyl)benzylidene)amino)-2-thioxoimidazolidin-4-one]",4.85 ± 0.985,
"Cc1c(Cl)cccc1/N=N/c1ccc(O)c(/C=N/N2C(=O)CNC2=S)c1 [Compound 7d, 3-((E)-(5-((E)-(3-chloro-2-methylphenyl)diazenyl)-2-hydroxybenzylidene)amino)-2-thioxoimidazolidin-4-one]",3.15 ± 0.853,
"O=C1CNC(=S)N1/N=C/c1cc(/N=N/c2ccc(S(=O)(=O)O)cc2)ccc1O [Compound 7b, 4-((E)-(4-hydroxy-3-((E)-((5-oxo-2-thioxoimidazolidin-1-yl)imino)methyl)phenyl)-diazenyl)benzenesulfonic acid]",1.28 ± 0.214,
"N[C@@H](Cc1ccccc1)C(=O)O [L–Phenyl alanine, reference compound]",80.2 ± 1.1,
"O=C1CNC(=S)N1/N=C/c1cc(/N=N/c2ccc([N+](=O)[O-])cc2)ccc1O [Compound 7f, 3-((E)-(2-hydroxy-5-((E)-(4-nitrophenyl)diazenyl)benzylidene)amino)-2-thioxoimidazolidin-4-one]",0.836 ± 0.097,271 to 273
"O=C1CNC(=S)N1/N=C/c1cc(/N=N/c2cccc(Cl)c2Cl)ccc1O [Compound 7c, 3-((E)-(5-((E)-(2,3-dichlorophenyl)diazenyl)-2-hydroxybenzylidene)amino)-2 thioxoimidazolidin-4-one]",3.07 ± 0.687,
"O=C(O)c1ccc(/N=N/c2ccc(O)c(/C=N/N3C(=O)CNC3=S)c2)cc1 [Compound 7e, 4-((E)-(4-hydroxy-3-((E)-((5-oxo-2-thioxoimidazolidin-1-yl)imino)methyl)phenyl)diazenyl)benzoic acid]",0.308 ± 0.065,
